# Measured values as given in patent US20040067998A1, “Antifungal and/or antiparasitic pharmaceutical composition and novel indole derivatives as active principle of such a composition” (priority 2003, published 2004).
# “And” between values parts separate entries of the source, which are not always exact repeats. Equal entries are not always repeated. “Also recorded” adds a separate entry of the source. Where two headings read alike, the source gives them in different places.
# Experiments:
# Type in all cases: cell-based
# [1] = test system: promastigote stage of Leishmania mexicana; test: Antiparasitic activity on the promastigote form of Leishmania (MTT); settings: for IC50: read-out: CI50 Leishmania mexicana Promastigotes
# [2] = test system: Candida albicans (strain n° CA980001); test: Antifungal activity on a clinical strain of Candida albicans (MTT colorimetric microplate test); settings: for CMI or CI80 Candida albicans (CA980001) / MIC: strain CA980001; for activity of inhibition of Candida albicans (in words): summary of Tables 27 to 40; for MIC: read-out: CMI or CI80 Candida albicans (CA980001)
# [3] = test system: Aspergillus fumigatus (strain n°AF 980003); test: Antifungal activity on a clinical strain of Aspergillus fumigatus (Alamar Blue microplate test); settings: for CMI or CI80 Aspergillus fumigatus (AF980003) / MIC: strain AF980003; for activity against Aspergillus fumigatus (in words): summary of Tables 27 to 40; for MIC: read-out: CMI or CI80 Aspergillus fumigatus (AF980003)
# [4] = test system: Candida parapsilosis (2 strains); test: Antifungal activity in vitro on clinical strains of Candida: parapsilosis (2 strains)
# [5] = test system: Candida krusei (4 strains); test: Antifungal activity in vitro on clinical strains of Candida: krusei (4 strains)
# [6] = test system: Candida lusitaniae (1 strain); test: Antifungal activity in vitro on clinical strains of Candida: lusitaniae (1 strain)
# [7] = test system: Candida albicans (4 strains); test: Antifungal activity in vitro on clinical strains of Candida: albicans (4 strains)
# [8] = promastigotes, 36 h at 26° C., MTT
SMILES,CI50 Leishmania mexicana Promastigotes ([1]; promastigotes) [µg/mL],IC50 ([1]; promastigotes) [µM],CMI or CI80 Candida albicans (CA980001) [2],CMI or CI80 Aspergillus fumigatus (AF980003) [3],activity against Aspergillus fumigatus (in words) [3],CI50 Leishmania mexicana Promastigotes [1] [µg/mL],IC50 [1] [µM],MIC [3] [µM],activity of inhibition of Candida albicans (in words) [2],MIC [2] [µM],further results
CCn1c(C(c2ccc(Cl)cc2)n2ccnc2)c(C)c2cc(Br)ccc21 (stereo not drawn) [compound 33],2.87 ± 2,6.7 ± 2.1,59 ± 1 μM and 25 ± 0.5 μg/mL,56 ± 3 μM and 24 ± 1 μg/mL,strong activity,–,–,–,–,–,activity against Leishmania mexicana (in words) [1]: strong activity
CCn1c(C(c2ccc(Cl)cc2Cl)n2ccnc2)c(C)c2cc(Br)ccc21 (stereo not drawn) [compound 34],–,–,48 ± 0.5 μM and 22 ± 0.5 μg/mL,–,–,1.99 ± 0.04,4.28 ± 0.1,>100,–,–,activity against Leishmania mexicana (in words) [1]: strong activity
CCn1c(C)c(C(c2ccc(F)cc2)n2ccnc2)c2ccccc21 (stereo not drawn) [compound 43],1.88 ± 0.1,5.9 ± 0.14,6 ± 1 μM and 2.0 ± 1 μg/mL,53 ± 3 μM and 17 ± 1 μg/mL,–,–,–,–,significant activity,–,–
CCN1CCc2cccc(C(c3ccc(F)cc3)n3ccnc3)c21 (stereo not drawn) [compound 50],–,–,–,–,most active,–,–,–,most active,–,"activity against Leishmania mexicana (in words) [1]: most active; CI50 Leishmania mexicana Promastigotes [1, 8]: 0.24 ± 0.017 µg/mL; IC50 [1, 8]: 0.74 ± 0.017 µM; CMI or CI80 Candida albicans (CA980001) ([2]; 24 h at 37° C., MTT): 0.67 ± 0.01 μM and 0.22 ± 0.01 μg/ml; CMI or CI80 Aspergillus fumigatus (AF980003) ([3]; Alamar Blue): 5.4 ± 0.2 μM and 1.7 ± 0.1 μg/ml"
CCn1ccc2cccc(C(c3ccc(F)cc3)n3ccnc3)c21 (stereo not drawn) [compound 57],0.80 ± 1.3,2.49 ± 1.3,0.67 ± 0.02 μM and 0.21 ± 0.01 μg/mL,20 ± 5 μM and 6 ± 2 μg/mL,most active,–,–,–,most active,–,–
CCn1ccc2cc(Br)cc(C(c3ccc(F)cc3)n3ccnc3)c21 (stereo not drawn) [compound 58],2.4 ± 0.12,6.2 ± 0.35,0.69 ± 0.01 μM and 0.27 ± 0.01 μg/mL,59 ± 4 μM and 23 ± 2 μg/mL,strong activity,–,–,–,most active,–,–
Clc1ccc(Cn2cc(CCn3ccnc3)c3ccccc32)cc1 [compound 59],–,–,–,–,–,15.6,87,>100,–,>100,–
Clc1ccc(Cn2cc(CCCn3ccnc3)c3ccccc32)cc1 [compound 60],–,–,–,–,–,26.1,74.7,>100,–,>100,–
Clc1ccccc1Cn1cc(C2(Cn3ccnc3)CCCC2)c2ccccc21 [compound 62],–,–,–,–,–,28.38,72.8,>100,–,>100,–
Cc1c(C(C)n2ccnc2)c2ccccc2n1Cc1ccc(F)cc1 (stereo not drawn) [compound 72],–,–,67 ± 3 μM and 22 ± 1 μg/mL,69 ± 1 μM and 23 ± 1 μg/mL,–,0.7 ± 0.3,2 ± 1,–,–,–,–
OC(Cn1ccnc1)(Cn1ccc2ccccc21)c1ccc(Br)cc1 (stereo not drawn) [compound 73],2.7 ± 0.08,6.65 ± 0.22,0.02 µg/mL,–,–,–,–,>100,most active,0.06,"activity against Candida parapsilosis (in words) ([4]; clinical strains): very active; CI80 on clinical strains of Candida ([4]; strain CP980001 (Candida parapsilosis)): 0.67 ± 0.0 µM; CI80 on clinical strains of Candida ([4]; strain CP980002 (Candida parapsilosis)): 4.65 ± 0.11 µM; activity against Candida krusei (in words) ([5]; clinical strains, b748: one strain): active; also recorded: very active; CI80 on clinical strains of Candida ([5]; strain CK980001 (Candida krusei)): 0.65 ± 0.01 µM; CI80 on clinical strains of Candida ([5]; strain CK980002 (Candida krusei)): 12.81 ± 2.22 µM; CI80 on clinical strains of Candida ([5]; strain CK980003 (Candida krusei)): 92.27 ± 3.90 µM; CI80 on clinical strains of Candida ([5]; strain CK980004 (Candida krusei)): >100 µM; activity against Candida lusitaniae (in words) ([6]; clinical strain): very active; CI80 on clinical strains of Candida ([6]; strain CL980001 (Candida lusitaniae)): 0.63 ± 0.01 µM; activity against strains of Candida albicans (in words) ([7]; clinical strains): active; also recorded: very active; CI80 on clinical strains of Candida ([7]; strain CA980001 (Candida albicans)): 0.06 ± 0.002 µM; CI80 on clinical strains of Candida ([7]; strain CA980002 (Candida albicans)): 0.63 ± 0.016 µM; CI80 on clinical strains of Candida ([7]; strain CA980003 (Candida albicans)): 0.55 ± 0.0963 µM; CI80 on clinical strains of Candida ([7]; strain CA980005 (Candida albicans)): 0.53 ± 0.022 µM"
OC(Cn1ccnc1)(Cn1ccc2ccccc21)c1ccc(F)cc1F (stereo not drawn) [compound 77],1.59,4.5,0.00035 µg/mL,11 ± 7 μM and 4 ± 2 μg/mL,–,–,–,–,most active,0.0011,–
Clc1ccc(C(Cn2ccc3ccccc32)n2ccnc2)cc1 (stereo not drawn) [compound 85],–,–,–,88 ± 5 μM and 28 ± 2 μg/mL,–,–,> 100,–,–,>100,–
